These results are taken from article PMC9029529, “Distinct Mechanisms of Cytotoxicity in Novel Nitrogenous Heterocycles: Future Directions for a New Anti-Cancer Agent” (Molecules, 2022).

One data set has as its system HCT8 cells. The data set is described as follows: MTT assay, HCT8. The data set is classed as cell-based. Particulars: Homo sapiens, HCT-8, 24 h, 0 to 250 μM, read-out: IC50 Colorectal Cancer (HCT8). The protocol: To establish the cytotoxic effect of the nitrogenous derivatives, cells were treated with various concentrations of the drugs ranging from 0 to 250 μM. Following a 24 h incubation period, cell viability was assessed using the MTT assay. Mitoxantrone served as a positive control to evaluate growth inhibition. Since heterogeneity is a hallmark of cancer, the study included cell lines with diverse genomic and proteomic profiles. […] In this regard, further optimization would be required to increase the selective therapeutic potential of compound 9. To determine whether the anti-proliferative effect of the nitrogen derivatives could be translated to other malignancies, we tested the cytotoxic effect on the HCT8 (colorectal cancer) cell line. HCT8 is an adenocarcinoma driven by the Kirsten Rat Sarcoma (KRAS) mutation, unlike MCF-10A [28].
The MTT assay was utilized to examine the imidazole derivatives’ anti-proliferative activity against MCF-10A, MDA-MB-231, and HCT8 cell lines, purchased from ATCC, USA [47]. Firstly, 5 × 10^3 cells/well were seeded in a 96-well plate in 100 μL of growth medium and were subsequently cultured overnight with various concentrations of each compound ranging from 0 to 250 µM [48]. The media was aspirated, and 50 µL of serum-free media and 50 µL of MTT solution were added to each well. Next, cells were incubated at 37 °C for 3 h, then 150 µL of MTT solvent was added into each well. After that, plates were wrapped in foil and agitated for 15 min on an orbital shaker. Finally, the absorbance was measured within 1 h at OD590 nm. Half-maximal inhibitory concentration IC50 values (μM) were calculated for each compound from the dose–response curve. Experiments were performed in triplicates.
On the technique in general: Tetrazolium dyes change colour on reduction, which living cells bring about.

Data set [1] has as its system HL60 cells. Put plainly: CellTiter-Glo assay, HL60. The data set is classed as cell-based, human. Conditions: read-out: IC50 Leukemia HL60. As to the method: (§1) To validate the anti-proliferative activity of the imidazole derivatives, the compounds were tested against several cancer cell lines, which included breast cancer (MDA-MB-231, KAIMRC1, and KAIMRC2), colorectal cancer (HCT8), and acute promyelocytic leukemia cells (HL60). KAIMRC1 was isolated from a person with stage II-B breast cancer and is ER+/PR+ and HER2-. In comparison, KAIMRC2 was isolated from a person with metastasized breast cancer and is a triple-negative (ER-/PR-, and HER2-) tumor cell line.
(§2) The CellTiter-Glo assay (Promega™, Madison, WI, USA) was used to evaluate imidazole and oxazolone derivatives cytotoxicity against various cancer cell lines; MCF-10A, HL60, MDA-MB-231, and HCT8, purchased from ATCC, USA, except KAIMRC1 and KAIMRC2, which were isolated, established, and characterized in the core laboratory facility KAIMRC, Riyadh, Saudi Arabia. The cells were seeded in white 96-well plates at a density of 5 × 10^3 cells/well in a 100 μL of growth medium with various concentrations of each compound ranging from 0 to 250 µM. Cells were incubated at 37 °C for 24 h. Plates were equilibrated at RT for 30 min. A quantity of 100 µL of CellTiter-Glo reagent was added to each well and mixed for 2 min on an orbital shaker. Plates were incubated for 10 min at RT before measuring the luminescence using an Envision plate reader (Perkin Elmer). Half-maximal inhibitory concentration IC50 values (μM) were calculated for each imidazole derivative from the dose–response curve. The cytotoxic effect at a concentration <10 µM was considered strongly active and from 11 to 100 µM was considered moderately active, whereas above 100 µM was deemed non-active. Mitoxantrone was utilized as a positive control. Experiments were performed in triplicates.
(In general: In ATP-based viability assays light output follows the ATP content of the culture.)

In a further data set the test system is MDA-MB-231 cells. Put plainly: CellTiter-Glo assay, MDA-MB-231. The data set is classed as cell-based. Particulars: Homo sapiens, 24 h, read-out: IC50 Breast Cancer MDA-MB-231. As to the method: as §1, §2
The test system of the next data set is KAIMRC1 cells. Put plainly: CellTiter-Glo assay, KAIMRC1. Particulars: Homo sapiens, 24 h, read-out: IC50 Breast Cancer KAIMRC1. The format is cell-based. The protocol:
as §1, §2

For the next data set, the system named is KAIMRC2 cells. The data set is described as follows: CellTiter-Glo assay, KAIMRC2. The data set is classed as cell-based. Particulars: Homo sapiens, 24 h, read-out: IC50 Breast Cancer KAIMRC2. As to the method: as §1, §2
Data set [2] deals with HL60 cells. The data set is described as follows: High-content imaging (HCI) cell health / apoptosis assay. The format is cell-based, human. Conditions: for viability at 31.25 µM / viability at 62.5 µM / viability at 125 µM: Homo sapiens, HL-60, HCI Cell Health, read-out: HL60 Cell Line % Cell Viability; for viability at 31.25 µM / viability at 62.5 µM / viability at 125 µM / apoptosis in HL60 cells (HCI): 48 h; for apoptosis in HL60 cells (HCI): increasing concentrations 31.25-125 µM, compared with control. As to the method:
Figure 5A depicts a dose-dependent increase in cell shrinkage/condensing, and necrotic cells are also visible. […] Furthermore, even at the lowest concentration, 31.25 µM, compound 9 was more efficacious than compound 8 since there appeared to be fewer healthy cells (blue and green staining) and a greater level of shrinkage. Moreover, Figure 5B depicts the HCI Cell Health determined by means of digital analysis, displaying the HL60 percentage cell viability as a function of increasing drug concentrations.
Figure 5 HCI-based apoptosis assay. (A) HL60 cells were treated with three concentrations (31.25 µM, 62.5 µM, and 125 µM) of compounds # 8 (a–c), # 9 (d–f), and PBS for the negative control (g) for 48 h. The nucleus (blue) was stained with HOECHST 33342, the cytoplasm (Green) was stained with Calcein AM, and dead cells (Red) were stained with Propidium Iodide (PI). […] (B) HCI Cell Health Digital Analysis MetaXpress software generated the graph quantifying the cell viability, seen in B, as a percentage of HL60 cells treated with the compounds. […] TEXT PRINTED IN THE PICTURE: (B) Compound # 8: HL60 Cell Line % Cell Viability: 64.5 (125μM); HL60 Cell Line % Cell Viability: 87.4 (62.5μM); HL60 Cell Line % Cell Viability: 94.6 (31.25μM) | (B) Compound # 9: HL60 Cell Line % Cell Viability: 45.7 (125μM); HL60 Cell Line % Cell Viability: 56.9 (62.5μM); HL60 Cell Line % Cell Viability: 79.9 (31.25μM) | (B) Control: HL60 Cell Line % Cell Viability: 98.5
HL60 cells were seeded in a 96-well plate at a density of 20,000 cells per well. The cells were treated with compounds 8 and 9 and negative control (PBS) for 48 h. Three graded concentrations were used for the treatment, 31.25 µM, 62.5 µM, and 125 µM. After the treatment, the cells were stained with Calcein AM (2 µg/mL), HOECHST33342 (2.5 µg/mL), and Propidium Iodide (2.5 µg/mL) for 45 min at 37 °C and 5% CO2. Plates were imaged on a Molecular Devices ImageXpress® Microsystem, and the acquired image data were analyzed using MetaXpress® software, Molecular Devices, Downingtown, PA, USA. The Cell Health module available in the MetaXpress software was used to measure the percentage viability of live and dead cells. Experiments were performed in triplicates.

The IC50 is the concentration that gives 50% inhibition. A word on the viability: it is a read-out of living cells in per cent, often relative to untreated cells.

Where two headings read alike, the source gives them in different places.

Regarding `COc1cccc(/C=C2\N=C(c3ccccc3)N(Nc3ccc([N+](=O)[O-])cc3[N+](=O)[O-])C2=O)c1` [Compound 9], the concentration for half-maximal inhibition (IC50) came to 13.2 µM in the data set on HCT8 cells; 8.63 µM in the data set on HL60 cells [1] (24 h); 8.63 µM in the data set on HL60 cells [1] (Homo sapiens, HL-60, 24 h); 39.2 µM with MDA-MB-231 cells; 22.2 µM in the data set on KAIMRC1 cells; 27.1 µM with KAIMRC2 cells. The cytotoxic efficacy result with HL60 cells [2] (31.25 µM, HL60, 48 h) was “approximately 20%”. Moreover, the cytotoxicity entry in the data set on HL60 cells [2] (62.5 µM, HL60, 48 h) is listed as “approximately 54%”. In addition, in the data set on HL60 cells [2], the viability at 31.25 µM was found to be 79.9%. Also, the viability at 62.5 µM in the data set with HL60 cells [2] is 56.9%. Further, the viability at 125 µM in the data set on HL60 cells [2] is 45.7%. In the data set with HL60 cells [2], the “apoptosis in HL60 cells (HCI)” value was “led to apoptosis”.
On to `O=C1/C(=C/c2ccccc2)N=C(c2ccccc2)N1Nc1ccc([N+](=O)[O-])cc1[N+](=O)[O-]` [Compound 8], for which the IC50 with HCT8 cells is 29.5 µM; in the data set with HL60 cells [1] (24 h), 9.24 µM; in the data set with HL60 cells [1] (Homo sapiens, HL-60, 24 h), 9.23 µM; in the data set on MDA-MB-231 cells it was 19 µM; with KAIMRC1 cells, 10.2 µM; with KAIMRC2 cells, 31.6 µM. In addition, the viability at 31.25 µM in the data set on HL60 cells [2] was 94.6%. In the data set on HL60 cells [2], the viability at 62.5 µM was determined as 87.4%. In the data set with HL60 cells [2], the viability at 125 µM was 64.5%. For the same compound, in the data set on HL60 cells [2], the “apoptosis in HL60 cells (HCI)” value was “led to apoptosis”.
